Experiments:
[1] = molecular target: T1, HCV polymerase 1B (Δ21 NS5B) (Hepatitis C virus genotype 1b, UniProt P26663); assay: biochemical
T1 construct: 20 to 50nM Δ21 NS5B
Experimental: (§1) Either two-fold serial dilutions (fractional inhibition assay) or a narrower range of dilutions spanning the IC50 of the inhibitor (tight binding assay) of the inhibitors were incubated with 20mM Tris-Cl pH 7.4, 2 mM MnCl2, 1 mM dithiothreitol, 1 mM ethylene diamine tetraacetic acid (EDTA), 60 to 125μM GTP and 20 to 50nM Δ21 NS5B (HCV Strain 1B (BK, Genbank accession number M58335, or H77, Genbank accession number AF011751)) for 15min at room temperature. The reaction was initiated by the addition of 20μM CTP, 20μM ATP, 1μM ^3H-UTP (10mCi/umol), 5nM template RNA and 0.1 U/μl RNase inhibitor (RNasin, Promega), and allowed to proceed for 2 to 4h at room temperature. Reaction volume was 50μl. The reaction was terminated by the addition of 1 volume of 4mM spermine in 10mM Tris-Cl pH 8.0, 1mM EDTA. After incubation for at least 15 min at room temperature, the precipitated RNA was captured by filtering through a GF/B filter (Millipore) in a 96 well format. The filter plate was washed three times with 200μl each of 2mM spermine, 10mM Tris-Cl pH 8.0, lmM EDTA, and 2 times with ethanol. After air-drying, 30μl of Microscint 20 scintillation cocktail (Packard) was added to each well, and the retained cpm were determined by scintillation counting. […] Retained cpm were plotted vs. inhibitor concentration and fit to equation 1 using non-linear regression (ref. 1) to obtain the IC50 values: Retained cpm=A[sqrt{(IC50+It−Et)^2+4*IC50*Et}−([…])]
Ref. Morrison, J. F. and S. R. Stone. 1985. Approaches to the study and analysis of the inhibition of enzymes by slow- and tight-binding inhibitors. Comments Mol. Cell. Biophys. 2: 347-368.
(§2) The sequence of the template RNA used was: 5′-[…]-3′

[2] = tested on: genotype 1a-H77 subgenomic replicon cell line; assay: microbe, parasite or virus in culture; assay type: cell-based, HCV; conditions: Hepatitis C virus, 72 h, read-out: EC50 1a
[3] = molecular target: T2, HCV polymerase 1A (Δ21 NS5B) (Hepatitis C virus genotype 1a, UniProt P27958); assay: HCV Polymerase Inhibition Assay (1a); assay type: biochemical
T2 construct: 20 to 50nM Δ21 NS5B
Experimental: as §1, with “The” for “Either two-fold serial dilutions (fractional inhibition assay) or a narrower range of dilutions spanning the IC50 of the inhibitor (tight binding assay) of the inhibitors were incubated with 20mM Tris-Cl pH 7.4, 2 mM MnCl2, 1 mM dithiothreitol, 1 mM ethylene diamine tetraacetic acid (EDTA), 60 to 125μM GTP and 20 to 50nM Δ21 NS5B (HCV Strain 1B (BK, Genbank accession number M58335, or H77, Genbank accession number AF011751)) for 15min at room temperature. The”
Ref. Morrison, J. F. and S. R. Stone. […] Approaches to the study and analysis of the inhibition of enzymes by slow- and tight-binding inhibitors. Comments Mol. Cell. Biophys.
as §2

[4] = tested on: genotype 1b-Con1 subgenomic replicon cell line; assay: microbe, parasite or virus in culture; assay type: cell-based, HCV; conditions: Hepatitis C virus, 72 h, read-out: EC50 1b

T2 sequence (P27958 2421-2990, stated change not applied): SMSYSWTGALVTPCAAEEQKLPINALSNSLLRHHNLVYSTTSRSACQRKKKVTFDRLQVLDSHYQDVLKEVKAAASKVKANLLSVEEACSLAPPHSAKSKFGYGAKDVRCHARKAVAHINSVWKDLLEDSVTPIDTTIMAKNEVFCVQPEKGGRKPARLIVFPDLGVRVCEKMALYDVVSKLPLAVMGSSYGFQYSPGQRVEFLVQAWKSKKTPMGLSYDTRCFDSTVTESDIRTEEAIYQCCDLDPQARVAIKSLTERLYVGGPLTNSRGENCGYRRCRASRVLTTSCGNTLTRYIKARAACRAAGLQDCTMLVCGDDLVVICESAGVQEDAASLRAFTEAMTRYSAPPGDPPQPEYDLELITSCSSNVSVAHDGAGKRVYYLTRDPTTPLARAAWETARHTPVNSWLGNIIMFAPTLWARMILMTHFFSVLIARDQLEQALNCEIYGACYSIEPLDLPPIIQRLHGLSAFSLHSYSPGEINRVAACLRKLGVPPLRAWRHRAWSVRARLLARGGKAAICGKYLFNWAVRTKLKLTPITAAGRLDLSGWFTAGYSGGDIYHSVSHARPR
T1 sequence (P26663 2420-2989, stated change not applied): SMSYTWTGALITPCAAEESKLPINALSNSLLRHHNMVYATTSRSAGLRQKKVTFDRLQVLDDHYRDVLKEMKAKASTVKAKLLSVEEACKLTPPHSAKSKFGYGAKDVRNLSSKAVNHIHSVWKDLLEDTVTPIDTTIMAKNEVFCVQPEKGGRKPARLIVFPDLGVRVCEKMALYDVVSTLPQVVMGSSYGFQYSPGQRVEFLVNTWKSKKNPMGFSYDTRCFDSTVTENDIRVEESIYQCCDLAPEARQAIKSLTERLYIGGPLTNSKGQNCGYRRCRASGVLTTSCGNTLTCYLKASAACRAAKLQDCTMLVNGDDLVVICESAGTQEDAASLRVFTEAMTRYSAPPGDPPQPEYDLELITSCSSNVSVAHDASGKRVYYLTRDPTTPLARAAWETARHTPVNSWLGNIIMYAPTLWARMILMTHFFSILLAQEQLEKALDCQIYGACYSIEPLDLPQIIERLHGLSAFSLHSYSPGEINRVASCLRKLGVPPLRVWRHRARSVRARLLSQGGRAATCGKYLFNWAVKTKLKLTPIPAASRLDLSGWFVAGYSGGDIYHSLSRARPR

SMILES | IC50 [1] [µM] | EC50 [2] [µM] | IC50 [3] [µM] | EC50 [4] [µM]
COc1c(-c2ccc3c(c2)CC[C@@]3(F)CNS(C)(=O)=O)cc(-n2ccc(=O)[nH]c2=O)cc1C(C)(C)C [IB-L0-2.20, (S)-N-((5-(3-tert-butyl-5-(2,4-dioxo-3,4-dihydropyrimidin-1(2H)-yl)-2-methoxyphenyl)-1-fluoro-2,3-dihydro-1H-inden-1-yl)methyl)methanesulfonamide] | 0.01 to 0.1 | 0.1 to 1 | < 0.01 | 0.01 to 0.1
COc1c(-c2ccc3nc(NS(C)(=O)=O)cnc3c2)cc(-n2ccc(=O)[nH]c2=O)cc1C(C)(C)C [IB-L0-2.26, N-(6-(3-tert-butyl-5-(2,4-dioxo-3,4-dihydropyrimidin-1(2H)-yl)-2-methoxyphenyl)quinoxalin-2-yl)methanesulfonamide] | 0.01 to 0.1 | > 1 | 0.01 to 0.1 | 0.1 to 1
COc1c(-c2ccc3nc(N)sc3c2)cc(-n2ccc(=O)[nH]c2=O)cc1C(C)(C)C [IB-L0-2.27, 1-(3-(2-aminobenzo[d]thiazol-6-yl)-5-tert-butyl-4-methoxy-phenyl)pyrimidine-2,4(1H,3H)-dione] | 0.01 to 0.1 | 0.1 to 1 | 0.01 to 0.1 | 0.01 to 0.1
COc1c(-c2ccc3nc(NS(C)(=O)=O)sc3c2)cc(-n2ccc(=O)[nH]c2=O)cc1C(C)(C)C [IB-L0-2.28, N-(6-(3-tert-butyl-5-(2,4-dioxo-3,4-dihydropyrimidin-1(2H)-yl)-2-methoxyphenyl)benzo[d]thiazol-2-yl)methanesulfonamide] | 0.01 to 0.1 | > 1 | 0.01 to 0.1 | 0.1 to 1
COc1c(-c2ccc3c(c2)CNC3=O)cc(-n2ccc(=O)[nH]c2=O)cc1C(C)(C)C [IB-L0-2.30, 1-(3-tert-butyl-4-methoxy-5-(1-oxoisoindolin-5-yl)phenyl)-pyrimidine-2,4(1H,3H)-dione] | 0.01 to 0.1 | 0.1 to 1 | 0.01 to 0.1 | 0.01 to 0.1
COc1c(-c2ccc3c(c2)CCN3S(C)(=O)=O)cc(-n2ccc(=O)[nH]c2=O)cc1C(C)(C)C [IB-L0-2.32, 1-(3-tert-butyl-4-methoxy-5-(1-(methylsulfonyl)indolin-5-yl)phenyl)pyrimidine-2,4(1H,3H)-dione] | 0.01 to 0.1 | 0.1 to 1 | 0.01 to 0.1 | 0.01 to 0.1
COc1c(-c2ccc3ncsc3c2)cc(-n2ccc(=O)[nH]c2=O)cc1C(C)(C)C [IB-L0-2.33, 1-(3-(benzo[d]thiazol-6-yl)-5-tert-butyl-4-methoxyphenyl)pyrimidine-2,4(1H,3H)-dione] | 0.01 to 0.1 | 0.1 to 1 | 0.01 to 0.1 | 0.1 to 1
COc1c(-c2ccc3nc(Cl)sc3c2)cc(-n2ccc(=O)[nH]c2=O)cc1C(C)(C)C [IB-L0-2.38, 1-(3-tert-butyl-5-(2-chlorobenzo[d]thiazol-6-yl)-4-methoxyphenyl)pyrimidine-2,4(1H,3H)-dione] | 0.01 to 0.1 | > 1 | 0.1 to 1 | > 1
COc1c(-c2ccc3c(c2)CC=C3C(C)(C)NS(C)(=O)=O)cc(-n2ccc(=O)[nH]c2=O)cc1C(C)(C)C [IB-L0-2.41, N-(2-(6-(3-tert-butyl-5-(2,4-dioxo-3,4-dihydropyrimidin-1(2H)-yl)-2-methoxyphenyl)-1H-inden-3-yl)propan-2-yl)methanesulfonamide] | 0.1 to 1 | 0.1 to 1 | 0.1 to 1 | 0.1 to 1
COc1c(-c2ccc3c(C)coc3c2)cc(-n2ccc(=O)[nH]c2=O)cc1C(C)(C)C [IB-L0-2.42, 1-(3-tert-butyl-4-methoxy-5-(3-methylbenzofuran-6-yl)phenyl)-pyrimidine-2,4(1H,3H)-dione] | 0.1 to 1 | 0.1 to 1 | 0.1 to 1 | 0.1 to 1
COc1c(-c2ccc3c(c2)CCN(NS(C)(=O)=O)C3)cc(-n2ccc(=O)[nH]c2=O)cc1C(C)(C)C [IB-L0-2.43, N-(6-(3-tert-butyl-5-(2,4-dioxo-3,4-dihydropyrimidin-1(2H)-yl)-2-methoxyphenyl)-3,4-dihydroisoquinolin-2(1H)-yl)methanesulfonamide] | 0.1 to 1 | > 1 | 0.1 to 1 | 0.1 to 1
COc1c(-c2ccc3c(CNS(C)(=O)=O)noc3c2)cc(-n2ccc(=O)[nH]c2=O)cc1C(C)(C)C [IB-L0-2.45] | 0.1 to 1 | > 1 | 0.1 to 1 | 0.1 to 1
COc1c(-c2ccc3c(c2)/C(=N/NS(C)(=O)=O)CC3)cc(-n2ccc(=O)[nH]c2=O)cc1-c1cccs1 [IB-L0-2.51, (E)-N′-(6-(5-(2,4-dioxo-3,4-dihydropyrimidin-1(2H)-yl)-2-methoxy-3-(thiophen-2-yl)phenyl)-2,3-dihydro-1H-inden-1-ylidene)methanesulfonohydrazide] | 0.01 to 0.1 | 0.01 to 0.1 | < 0.01 | < 0.01
CCC(C)(C)c1cc(-n2ccc(=O)[nH]c2=O)cc(-c2ccc3cc(NS(C)(=O)=O)ccc3c2)c1OC [IB-L0-2.52, N-(6-(5-(2,4-dioxo-3,4-dihydropyrimidin-1(2H)-yl)-2-methoxy-3-tert-pentylphenyl)naphthalen-2-yl)methanesulfonamide] | 0.01 to 0.1 | 0.01 to 0.1 | < 0.01 | < 0.01
COc1c(-c2ccsc2)cc(-n2ccc(=O)[nH]c2=O)cc1-c1ccc2cc(NS(C)(=O)=O)ccc2c1 [IB-L0-2.53, N-(6-(5-(2,4-dioxo-3,4-dihydropyrimidin-1(2H)-yl)-2-methoxy-3-(thiophen-3-yl)phenyl)naphthalen-2-yl)methanesulfonamide] | 0.01 to 0.1 | 0.01 to 0.1 | < 0.01 | 0.01 to 0.1
COc1c(-c2ccc3c(c2)/C(=N/NS(C)(=O)=O)CC3)cc(-n2ccc(=O)[nH]c2=O)cc1-c1ccco1 [IB-L0-2.55, (E)-N′-(6-(5-(2,4-dioxo-3,4-dihydropyrimidin-1(2H)-yl)-3-(furan-2-yl)-2-methoxyphenyl)-2,3-dihydro-1H-inden-1-ylidene)methanesulfonohydrazide] | 0.01 to 0.1 | 0.01 to 0.1 | < 0.01 | < 0.01
COc1c(-c2ccc3cc(NS(C)(=O)=O)ccc3c2)cc(-n2ccc(=O)[nH]c2=O)cc1C(F)(F)F [IB-L0-2.56, N-(6-(5-(2,4-dioxo-3,4-dihydropyrimidin-1(2H)-yl)-2-methoxy-3-(trifluoromethyl)phenyl)naphthalen-2-yl)methanesulfonamide] | 0.01 to 0.1 | 0.1 to 1 | < 0.01 | < 0.01
COc1c(I)cc(-n2ccc(=O)[nH]c2=O)cc1-c1ccc2cc(NS(C)(=O)=O)ccc2c1 [IB-L0-2.57, N-(6-(5-(2,4-dioxo-3,4-dihydropyrimidin-1(2H)-yl)-3-iodo-2-methoxyphenyl)naphthalen-2-yl)methanesulfonamide] | 0.01 to 0.1 | 0.1 to 1 | < 0.01 | 0.01 to 0.1
COc1c(-c2ccc3cc(NS(C)(=O)=O)ccc3c2)cc(-n2ccc(=O)[nH]c2=O)cc1-c1ccco1 [IB-L0-2.59, N-(6-(5-(2,4-dioxo-3,4-dihydropyrimidin-1(2H)-yl)-3-(furan-2-yl)-2-methoxyphenyl)naphthalen-2-yl)methanesulfonamide] | 0.01 to 0.1 | 0.1 to 1 | < 0.01 | 0.01 to 0.1

From patent US8501238B2, “Anti-infective agents and uses thereof” (priority 2007, dated 2013)
